Measurements published in patent publication US9873702B2, “Heterocyclic compounds as biogenic amine transport modulators” (Southern Research Institute, priority 2014, dated 2018).

Assays:
[1] = biological target: dopamine transporter (DAT) (Rattus norvegicus, UniProt P23977); assay: Dopamine reuptake ([^3H]dopamine uptake) inhibition in rat brain synaptosomes; settings: for IC50: DA Uptake EC50 (nM ± SD), rat caudate synaptosomes, 5 nM [^3H]dopamine, 15 min, 25° C., three experiments pooled; for Emax: read-out: DA Uptake Emax (% I ± SD)
Sequence of dopamine transporter (DAT) (P23977 whole entry): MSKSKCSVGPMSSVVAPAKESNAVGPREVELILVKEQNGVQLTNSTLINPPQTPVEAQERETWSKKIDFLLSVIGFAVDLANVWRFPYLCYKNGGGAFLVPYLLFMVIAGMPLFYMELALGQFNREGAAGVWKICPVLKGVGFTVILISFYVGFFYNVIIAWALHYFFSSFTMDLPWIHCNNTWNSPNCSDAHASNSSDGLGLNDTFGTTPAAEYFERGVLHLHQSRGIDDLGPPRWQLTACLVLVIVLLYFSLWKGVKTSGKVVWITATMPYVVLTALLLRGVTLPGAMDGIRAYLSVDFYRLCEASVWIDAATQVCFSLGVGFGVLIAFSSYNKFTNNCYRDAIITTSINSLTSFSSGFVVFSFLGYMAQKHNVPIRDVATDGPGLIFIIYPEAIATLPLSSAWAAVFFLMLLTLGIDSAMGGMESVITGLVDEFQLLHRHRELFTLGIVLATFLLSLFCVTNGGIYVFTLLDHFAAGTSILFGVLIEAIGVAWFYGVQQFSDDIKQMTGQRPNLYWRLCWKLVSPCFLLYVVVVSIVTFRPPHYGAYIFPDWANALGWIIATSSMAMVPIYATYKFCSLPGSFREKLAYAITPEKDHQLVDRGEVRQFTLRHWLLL

| SMILES | IC50 [1] [nM] | Emax [1] [%] | melting point [°C] |
| --- | --- | --- | --- |
| c1ccc(CCNc2nc(N3CCc4[nH]ccc4C3)nc3ccccc23)cc1 [compound 202, 2-(6,7-Dihydro-1H-Pyrrolo[3,2-c]Pyridin-5(4H)-yl)-N-Phenethylquinazolin-4-Amine] | 94 ± 18 | 100 ± 3 | 161 to 163 |
| Cc1cc2nccn2cc1-c1nc(NCC(c2ccccc2)C(C)C)c2ccccc2n1 (stereo not drawn) [compound 169, N-(3-Methyl-2-Phenylbutyl)-2-(7-Methylimidazo[1,2-A]Pyridin-6-yl)Quinazolin-4-Amine] | 1.8 ± 0.4 | 64 ± 2 | 115 to 118 |
| Cc1cc2nccn2cc1-c1nc(NCC(O)c2ccccc2)c2ccccc2n1 (stereo not drawn) [compound 186] | 14 ± 3 | 74 ± 2 | 221 to 224 |
| c1ccc(C(CNc2nc(-c3cccc4ncccc34)nc3ccccc23)c2ccccc2)cc1 [compound 49, N-(2,2-Diphenylethyl)-2-(Quinolin-5-yl)Quinazolin-4-Amine] | 130 ± 16 | 73 ± 2 | 207 |
| CC(C)(C)OC(=O)n1cnc2cc(-c3nc(NCC(c4ccccc4)c4ccccc4)c4ccccc4n3)ccc21 [compound 62, Tert-Butyl 5-(4-((2,2-Diphenylethyl)Amino)Quinazolin-2-yl)-1H-Benzo [D]Imidazole-1-Carboxylate] | 4210 | < 100 | 183 |
| Nc1ccc(-c2nc(NCC(c3ccccc3)c3ccccc3)c3ccccc3n2)cn1 [compound 88, 2-(6-Aminopyridin-3-yl)-N-(2,2-Diphenylethyl)Quinazolin-4-Amine] | 41 ± 13 | 86 ± 5 | 86 |
| c1ccc(C(CNc2nc(N3CCc4ccccc4C3)nc3ccccc23)c2ccccc2)cc1 [compound 193, 2-(3,4-Dihydroisoquinolin-2(1H)-yl)-N-(2,2-Diphenylethyl)Quinazolin-4-Amine] | 1.7 ± 0.4 | 77 ± 3 | 250 to 253 |
| CC(=O)N[C@H](CNc1nc(-c2ccc3nccn3c2)nc2ccccc12)c1ccccc1 [compound 149, (S)—N-(2-((2-(Imidazo[1,2-A]Pyridin-6-yl)Quinazolin-4-yl)Amino)-1-Phenylethyl)Acetamide] | 3720 ± 608 | 80 ± 4 | 99 to 101 |
| COc1cc2nc(-c3ccsc3)nc(NCC(c3ccccc3)c3ccccc3)c2cc1OC [compound 27, N-(2,2-Diphenylethyl)-6,7-Dimethoxy-2-(Thiophen-3-yl)Quinazolin-4-Amine] | 580 | 100 | 92 |
| COc1ccc2nc(-c3cccnc3)nc(NCC(c3ccccc3)c3ccccc3)c2c1 [compound 59, N-(2,2-Diphenylethyl)-6-Methoxy-2-(Pyridin-3-yl)Quinazolin-4-Amine] | 529 ± 146 | 56 ± 3 | 77 |
| c1ccc(C(Nc2nc(-c3ccc4nccn4c3)nc3ccccc23)c2ccccc2)cc1 [compound 86, N-Benzhydryl-2-(Imidazo[1,2-A]Pyridin-6-yl)Quinazolin-4-Amine] | 55 ± 6 | 70 ± 1 | 258 |
| c1ccc(C(CNc2nc(-c3cc4ccccc4[nH]3)nc3ccccc23)c2ccccc2)cc1 [compound 42, N-(2,2-Diphenylethyl)-2-(1H-Indol-2-yl)Quinazolin-4-Amine] | 200 | < 100 | 93 |
| CCOC(=O)c1cn2cc(-c3nc(NCC(c4ccccc4)c4ccccc4)c4ccccc4n3)ccc2n1 [compound 113, Ethyl 6-(4-((2,2-Diphenylethyl)Amino)Quinazolin-2-yl)Imidazo[1,2-A]Pyridine-2-Carboxylate] | 74 ± 9 | 64 ± 1 | 204 |
| COCCNc1ncc(-c2nc(NCC(c3ccccc3)c3ccccc3)c3ccccc3n2)cn1 [compound 47, N-(2,2-Diphenylethyl)-2-(2-((2-Methoxyethyl)Amino)Pyrimidin-5-yl)Quinazolin-4-Amine] | 148 ± 40 | 73 ± 4 | 199 |
| Cc1cc2nccn2cc1-c1nc(NCC(c2cccnc2)c2ccc[nH]2)c2ccccc2n1 (stereo not drawn) [compound 156, 2-(7-Methylimidazo[1,2-A]Pyridin-6-yl)-N-(2-(Pyridin-3-yl)-2-(1H-Pyrrol-2-yl)Ethyl)Quinazolin-4-Amine] | 14 ± 3 | 68 ± 2 | 121 to 125 |
| Cc1cc2nccn2cc1-c1nc(NCC(Cc2ccccc2)Cc2ccccc2)c2ccccc2n1 [compound 182, N-(2-Benzyl-3-Phenylpropyl)-2-(7-Methylimidazo[1,2-A]Pyridin-6-yl)Quinazolin-4-Amine] | 8.3 ± 0.9 | 75 ± 1 | 181 to 184 |

| SMILES | IC50 [1] [nM] | Emax [1] [%] | melting point [°C] |
| --- | --- | --- | --- |
| COc1cc2nc(-c3cnc(N(C)C)nc3)nc(NCC(c3ccccc3)c3ccccc3)c2cc1OC [compound 23, 2-(2-(Dimethylamino)Pyrimidin-5-yl)-N-(2,2-Diphenylethyl)-6,7-Dimethoxyquinazolin-4-Amine] | 720 | 100 | 92 |
| c1ccc(C(CNc2nc(N3CCc4c([nH]c5ccccc45)C3)nc3ccccc23)c2ccccc2)cc1 [compound 190, 2-(3,4-Dihydro-1H-Pyrido[3,4-B]Indol-2(9H)-yl)-N-(2,2-Diphenylethyl)Quinazolin-4-Amine] | 6.9 ± 2 | 80 ± 3 | 185 to 187 |
| CCN(CC)C(=O)[C@]1(c2ccccc2)C[C@@H]1CNc1nc(-c2cn3ccnc3cc2C)nc2ccccc12 [compound 171, (1R,2S)—N,N-Diethyl-2-(((2-(7-Methylimidazo[1,2-A]pyridin-6-yl)Quinazolin-4-yl)Amino)Methyl)-1-Phenylcyclopropanecarboxamide] | 16 ± 7 | 73 ± 5 | 225 to 228 |
| CN(C)c1ncc(-c2cccc(C(CNc3nc(-c4cnc(N(C)C)nc4)nc4ccccc34)c3ccccc3)n2)cn1 (stereo not drawn) [compound 57, 2-(2-(Dimethylamino)Pyrimidin-5-yl)-N-(2-(6-(2-(Dimethylamino)Pyrimidin-5-yl)Pyridin-2-yl)-2-Phenylethyl)Quinazolin-4-Amine] | 55 ± 18 | 61 ± 3 | 112 |
| c1ccc(C(CNc2nc(-c3ccc4nccn4c3)nc3ccccc23)c2ccccn2)cc1 (stereo not drawn) [compound 94, 2-(Imidazo[1,2-A]Pyridin-6-yl)-N-(2-Phenyl-2-(Pyridin-2-yl)Ethyl)Quinazolin-4-Amine] | 36 ± 4 | 69 ± 1 | 238 |
| c1ccc(C(CCNc2nc(-c3cccs3)nc3ccccc23)c2ccccc2)cc1 [compound 7, N-(3,3-Diphenylpropyl)-2-(thiophen-2-yl)quinazolin-4-amine] | 910 | 100 | 152 to 155 |
| c1ccc(C(CNc2nc(-c3cccs3)nc3ccccc23)c2ccccc2)cc1 [compound 6, N-(2,2-Diphenylethyl)-2-(thiophen-2-yl)quinazolin-4-amine] | 575 ± 51 | 78 ± 1 | 148 to 152 |
| Cc1cc2nccn2cc1-c1nc(NCCc2cccnc2)c2ccccc2n1 [compound 180, 2-(7-Methylimidazo[1,2-A]Pyridin-6-yl)-N-(2-(Pyridin-3-yl)Ethyl)Quinazolin-4-Amine] | 252 ± 22 | 73 ± 1 | 241 to 244 |
| c1ccc(C(CNc2nc(-c3ccc4[nH]ccc4c3)nc3ccccc23)c2cccc(-c3ccc4[nH]ccc4c3)n2)cc1 (stereo not drawn) [compound 58, N-(2-(6-(1H-Indol-5-yl)Pyridin-2-yl)-2-Phenylethyl)-2-(1H-Indol-5-yl)Quinazolin-4-Amine] | 478 ± 154 | 65 ± 5 | 151 |
| c1ccc(C(CNc2nc(-c3ccc4ncnn4c3)nc3ccccc23)c2cccnc2)cc1 (stereo not drawn) [compound 132, 2-([1,2,4]Triazolo[1,5-a]pyridin-6-yl)-N-(2-phenyl-2-(pyridin-3-yl)ethyl)quinazolin-4-amine] | 103 ± 26 | 55 ± 3 | > 250 |
| CS(=O)(=O)n1ccc2cc(-c3nc(NCC(c4ccccc4)c4ccccc4)c4ccccc4n3)ccc21 [compound 154, N-(2,2-Diphenylethyl)-2-(1-(Methylsulfonyl)-1H-Indol-5-yl)Quinazolin-4-Amine] | 56 ± 13 | 73 ± 3 | 144 to 146 |
| CN(C)Cc1c[nH]c2ccc(-c3nc(NCC(c4ccccc4)c4ccccc4)c4ccccc4n3)cc12 [compound 111, 2-(3-((Dimethylamino)methyl)-1H-Indol-5-yl)-N-(2,2-Diphenylethyl)Quinazolin-4-Amine] | 381 ± 42 | 101 ± 2 | 182 |
| Cc1cc2nccn2cc1-c1nc(NCC(C)c2ccccc2)c2ccccc2n1 (stereo not drawn) [compound 184, 2-(7-Methylimidazo[1,2-A]Pyridin-6-yl)-N-(2-Phenylpropyl)Quinazolin-4-Amine] | 5.3 ± 2 | 81 ± 4 | 208 to 212 |
| c1ccc(C(CNc2nc(-c3cnc4nccn4c3)nc3ccccc23)c2ncccn2)cc1 (stereo not drawn) [compound 109, 2-(Imidazo[1,2-A]Pyrimidin-6-yl)-N-(2-Phenyl-2-(Pyrimidin-2-yl)Ethyl)Quinazolin-4-Amine] | 377 ± 78 | 57 ± 2 | 180 |
| c1ccc(C(CCNc2nc(-c3ccc4nccn4c3)nc3ccccc23)c2ccccc2)cc1 [compound 87, N-(3,3-Diphenylpropyl)-2-(Imidazo[1,2-A]Pyridin-6-yl)Quinazolin-4-Amine] | 78 ± 9 | 75 ± 1 | 237 |
| CCC(CNc1nc(-c2cn3ccnc3cc2C)nc2ccccc12)c1ccccc1 (stereo not drawn) [compound 188, 2-(7-Methylimidazo[1,2-A]Pyridin-6-yl)-N-(2-Phenylbutyl)Quinazolin-4-Amine] | 1.4 ± 0.2 | 75 ± 2 | 232 to 234 |
